Assay results taken from ChEMBL document CHEMBL1240381, “Spread of a chromosomal cefixime-resistant penA gene among different Neisseria gonorrhoeae lineages” (2010).
In brackets after ≈: the same amount, converted by molar mass.

Experiments:
Type in all cases: functional
Neisseria gonorrhoeae [1] = assay: Antimicrobial activity against Neisseria gonorrhoeae isolate NG0205 expressing chromosomal cefixime-resistant penA gene by agar dilution method
Neisseria gonorrhoeae [2] = assay: Antimicrobial activity against Neisseria gonorrhoeae isolate NG0402 expressing chromosomal cefixime-resistant penA gene by agar dilution method
Neisseria gonorrhoeae [3] = assay: Antimicrobial activity against Neisseria gonorrhoeae isolate NG0109 expressing chromosomal cefixime-resistant penA gene by agar dilution method
Neisseria gonorrhoeae [4] = assay: Antimicrobial activity against Neisseria gonorrhoeae isolate NGON03-092 expressing chromosomal cefixime-resistant penA gene by agar dilution method
Neisseria gonorrhoeae [5] = assay: Antimicrobial activity against Neisseria gonorrhoeae isolate NGON07-002 expressing chromosomal cefixime-resistant penA gene by agar dilution method
Neisseria gonorrhoeae [6] = assay: Antimicrobial activity against Neisseria gonorrhoeae isolate NGON03-115 expressing chromosomal cefixime-resistant penA gene by agar dilution method
Neisseria gonorrhoeae [7] = assay: Antimicrobial activity against Neisseria gonorrhoeae isolate NG0303 expressing chromosomal cefixime-resistant penA gene by agar dilution method
Neisseria gonorrhoeae [8] = assay: Antimicrobial activity against Neisseria gonorrhoeae isolate NG0206 expressing chromosomal cefixime-resistant penA gene by agar dilution method
Neisseria gonorrhoeae [9] = assay: Antimicrobial activity against Neisseria gonorrhoeae isolate NG0410 expressing chromosomal cefixime-resistant penA gene by agar dilution method
Neisseria gonorrhoeae [10] = assay: Antimicrobial activity against Neisseria gonorrhoeae isolate NG9914 expressing chromosomal cefixime-resistant penA gene by agar dilution method
Neisseria gonorrhoeae [11] = assay: Antimicrobial activity against Neisseria gonorrhoeae isolate NG0003 expressing chromosomal cefixime-resistant penA gene by agar dilution method
Neisseria gonorrhoeae [12] = assay: Antimicrobial activity against Neisseria gonorrhoeae isolate NG0003 expressing chromosomal cefixime-resistant penA gene at […] after 16 hrs
Neisseria gonorrhoeae [13] = assay: Antimicrobial activity against Neisseria gonorrhoeae isolate NG0110 expressing chromosomal cefixime-resistant penA gene by agar dilution method
Neisseria gonorrhoeae [14] = assay: Antimicrobial activity against Neisseria gonorrhoeae isolate NG9806 expressing chromosomal cefixime-resistant penA gene by agar dilution method
Neisseria gonorrhoeae [15] = assay: Antimicrobial activity against Neisseria gonorrhoeae isolate NG0312 expressing chromosomal cefixime-resistant penA gene by agar dilution method
Neisseria gonorrhoeae [16] = assay: Antimicrobial activity against Neisseria gonorrhoeae isolate NG0404 expressing chromosomal cefixime-resistant penA gene by agar dilution method
Neisseria gonorrhoeae [17] = assay: Antimicrobial activity against Neisseria gonorrhoeae isolate NG0008 expressing chromosomal cefixime-resistant penA gene by agar dilution method
Neisseria gonorrhoeae [18] = assay: Antimicrobial activity against Neisseria gonorrhoeae isolate NG0201 expressing chromosomal cefixime-resistant penA gene by agar dilution method
Neisseria gonorrhoeae [19] = assay: Antimicrobial activity against Neisseria gonorrhoeae isolate NG9811 expressing chromosomal cefixime-resistant penA gene by agar dilution method
Neisseria gonorrhoeae [20] = assay: Antimicrobial activity against Neisseria gonorrhoeae isolate NG0513 expressing chromosomal cefixime-resistant penA gene by agar dilution method
Neisseria gonorrhoeae [21] = assay: Antimicrobial activity against Neisseria gonorrhoeae isolate NG9911 expressing chromosomal cefixime-resistant penA gene by agar dilution method
Neisseria gonorrhoeae [22] = assay: Antimicrobial activity against Neisseria gonorrhoeae isolate NG0509 expressing chromosomal cefixime-resistant penA gene by agar dilution method
Neisseria gonorrhoeae [23] = assay: Antimicrobial activity against Neisseria gonorrhoeae isolate NG0202 expressing chromosomal cefixime-resistant penA gene by agar dilution method
Neisseria gonorrhoeae [24] = assay: Antimicrobial activity against Neisseria gonorrhoeae isolate NG0401 expressing chromosomal cefixime-resistant penA gene by agar dilution method
Neisseria gonorrhoeae [25] = assay: Antimicrobial activity against Neisseria gonorrhoeae isolate NG0207 expressing chromosomal cefixime-resistant penA gene by agar dilution method
Neisseria gonorrhoeae [26] = assay: Antimicrobial activity against Neisseria gonorrhoeae isolate NGON03-079 expressing chromosomal cefixime-resistant penA gene by agar dilution method
Neisseria gonorrhoeae [27] = assay: Antimicrobial activity against Neisseria gonorrhoeae isolate NG9812 expressing chromosomal cefixime-resistant penA gene by agar dilution method
Neisseria gonorrhoeae [28] = assay: Antimicrobial activity against Neisseria gonorrhoeae isolate NG0204 expressing chromosomal cefixime-resistant penA gene by agar dilution method
Neisseria gonorrhoeae [29] = assay: Antimicrobial activity against Neisseria gonorrhoeae isolate NG0514 expressing chromosomal cefixime-resistant penA gene by agar dilution method
Neisseria gonorrhoeae [30] = assay: Antimicrobial activity against Neisseria gonorrhoeae isolate NG0511 expressing chromosomal cefixime-resistant penA gene by agar dilution method
Neisseria gonorrhoeae [31] = assay: Antimicrobial activity against Neisseria gonorrhoeae isolate NG0202 expressing chromosomal cefixime-resistant penA gene at 0.031 ug/ml after 16 hrs
Neisseria gonorrhoeae [32] = assay: Antimicrobial activity against Neisseria gonorrhoeae isolate NG0503 expressing chromosomal cefixime-resistant penA gene by agar dilution method
Neisseria gonorrhoeae [33] = assay: Antimicrobial activity against Neisseria gonorrhoeae isolate NG0304 expressing chromosomal cefixime-resistant penA gene by agar dilution method
Neisseria gonorrhoeae [34] = assay: Antimicrobial activity against Neisseria gonorrhoeae isolate NG9912 expressing chromosomal cefixime-resistant penA gene by agar dilution method
Neisseria gonorrhoeae [35] = assay: Antimicrobial activity against Neisseria gonorrhoeae isolate NG0512 expressing chromosomal cefixime-resistant penA gene by agar dilution method
Neisseria gonorrhoeae [36] = assay: Antimicrobial activity against Neisseria gonorrhoeae isolate NG0111 expressing chromosomal cefixime-resistant penA gene by agar dilution method
Neisseria gonorrhoeae [37] = assay: Antimicrobial activity against Neisseria gonorrhoeae isolate NG9913 expressing chromosomal cefixime-resistant penA gene by agar dilution method
Neisseria gonorrhoeae [38] = assay: Antimicrobial activity against Neisseria gonorrhoeae isolate NG0311 expressing chromosomal cefixime-resistant penA gene by agar dilution method
Neisseria gonorrhoeae [39] = assay: Antimicrobial activity against Neisseria gonorrhoeae isolate NG0002 expressing chromosomal cefixime-resistant penA gene by agar dilution method
Neisseria gonorrhoeae [40] = assay: Antimicrobial activity against Neisseria gonorrhoeae isolate NG0508 expressing chromosomal cefixime-resistant penA gene by agar dilution method
Neisseria gonorrhoeae [41] = assay: Antimicrobial activity against Neisseria gonorrhoeae isolate NG0202 expressing chromosomal cefixime-resistant penA gene at 2 ug/ml after 16 hrs
Neisseria gonorrhoeae [42] = assay: Antimicrobial activity against Neisseria gonorrhoeae isolate NG0003 expressing chromosomal cefixime-resistant penA gene at 2 ug/ml after 16 hrs

Compound: C=CC1=C(C(=O)O)N2C(=O)[C@@H](NC(=O)/C(=N\OCC(=O)O)c3csc(N)n3)[C@H]2SC1 [CEFIXIME]
- MIC (Neisseria gonorrhoeae [1]): 0.25 µg/mL (≈ 0.551 µM)
- MIC (Neisseria gonorrhoeae [2]): 0.031 µg/mL (≈ 0.0684 µM)
- MIC (Neisseria gonorrhoeae [3]): 0.25 µg/mL (≈ 0.551 µM)
- MIC (Neisseria gonorrhoeae [4]): 0.25 µg/mL (≈ 0.551 µM)
- MIC (Neisseria gonorrhoeae [5]): 0.25 µg/mL (≈ 0.551 µM)
- MIC (Neisseria gonorrhoeae [6]): 0.5 µg/mL (≈ 1.1 µM)
- MIC (Neisseria gonorrhoeae [7]): 0.25 µg/mL (≈ 0.551 µM)
- MIC (Neisseria gonorrhoeae [8]): 0.25 µg/mL (≈ 0.551 µM)
- MIC (Neisseria gonorrhoeae [9]): 0.5 µg/mL (≈ 1.1 µM)
- MIC (Neisseria gonorrhoeae [10]): 0.25 µg/mL (≈ 0.551 µM)
- MIC (Neisseria gonorrhoeae [11]): 0.25 µg/mL (≈ 0.551 µM)
- CFU (Neisseria gonorrhoeae [12]): 1.01 ×10⁸ /ml
- MIC (Neisseria gonorrhoeae [13]): 0.25 µg/mL (≈ 0.551 µM)
- MIC (Neisseria gonorrhoeae [14]): 0.25 µg/mL (≈ 0.551 µM)
- MIC (Neisseria gonorrhoeae [15]): 0.5 µg/mL (≈ 1.1 µM)
- MIC (Neisseria gonorrhoeae [16]): 0.5 µg/mL (≈ 1.1 µM)
- MIC (Neisseria gonorrhoeae [17]): 0.25 µg/mL (≈ 0.551 µM)
- MIC (Neisseria gonorrhoeae [18]): 0.25 µg/mL (≈ 0.551 µM)
- MIC (Neisseria gonorrhoeae [19]): 0.25 µg/mL (≈ 0.551 µM)
- MIC (Neisseria gonorrhoeae [20]): 0.5 µg/mL (≈ 1.1 µM)
- MIC (Neisseria gonorrhoeae [21]): 0.25 µg/mL (≈ 0.551 µM)
- MIC (Neisseria gonorrhoeae [22]): 0.25 µg/mL (≈ 0.551 µM)
- MIC (Neisseria gonorrhoeae [23]): 0.004 µg/mL (≈ 0.00882 µM)
- MIC (Neisseria gonorrhoeae [24]): 0.5 µg/mL (≈ 1.1 µM)
- MIC (Neisseria gonorrhoeae [25]): 0.25 µg/mL (≈ 0.551 µM)
- MIC (Neisseria gonorrhoeae [26]): 0.5 µg/mL (≈ 1.1 µM)
- MIC (Neisseria gonorrhoeae [27]): 0.25 µg/mL (≈ 0.551 µM)
- MIC (Neisseria gonorrhoeae [28]): 0.25 µg/mL (≈ 0.551 µM)
- MIC (Neisseria gonorrhoeae [29]): 0.25 µg/mL (≈ 0.551 µM)
- MIC (Neisseria gonorrhoeae [30]): 0.25 µg/mL (≈ 0.551 µM)
- CFU (Neisseria gonorrhoeae [31]): <10 mL⁻¹
- MIC (Neisseria gonorrhoeae [32]): 0.25 µg/mL (≈ 0.551 µM)
- MIC (Neisseria gonorrhoeae [33]): 1 µg/mL (≈ 2.21 µM)
- MIC (Neisseria gonorrhoeae [34]): 0.25 µg/mL (≈ 0.551 µM)
- MIC (Neisseria gonorrhoeae [35]): 0.25 µg/mL (≈ 0.551 µM)
- MIC (Neisseria gonorrhoeae [36]): 0.25 µg/mL (≈ 0.551 µM)
- MIC (Neisseria gonorrhoeae [37]): 0.25 µg/mL (≈ 0.551 µM)
- MIC (Neisseria gonorrhoeae [38]): 0.5 µg/mL (≈ 1.1 µM)
- MIC (Neisseria gonorrhoeae [39]): 0.25 µg/mL (≈ 0.551 µM)
- MIC (Neisseria gonorrhoeae [40]): 0.25 µg/mL (≈ 0.551 µM)

Compound: O=C(O)c1cn(C2CC2)c2cc(N3CCNCC3)c(F)cc2c1=O [CIPROFLOXACIN]
- MIC (Neisseria gonorrhoeae [11]): 0.031 µg/mL (≈ 0.0936 µM)
- CFU (Neisseria gonorrhoeae [41]): 0.71 ×10⁸ /ml
- MIC (Neisseria gonorrhoeae [23]): 8 µg/mL (≈ 24.1 µM)
- CFU (Neisseria gonorrhoeae [42]): <10 mL⁻¹
